Data taken from patent publication US6001867A, “1-aryl-dibenzothiophenes” (American Home Products Corporation, priority 1999, dated 1999).

What was measured:
[1] = tested on: rat hepatic microsomal PTPases; conditions: test compound 50 μM; rat hepatic microsomal fraction; substrate 50 uM, 37 deg.C
[2] = molecular target: T1, Human recombinant PTP1B (hPTP1B) (Homo sapiens, UniProt P18031)
T1 sequence (P18031 1-435): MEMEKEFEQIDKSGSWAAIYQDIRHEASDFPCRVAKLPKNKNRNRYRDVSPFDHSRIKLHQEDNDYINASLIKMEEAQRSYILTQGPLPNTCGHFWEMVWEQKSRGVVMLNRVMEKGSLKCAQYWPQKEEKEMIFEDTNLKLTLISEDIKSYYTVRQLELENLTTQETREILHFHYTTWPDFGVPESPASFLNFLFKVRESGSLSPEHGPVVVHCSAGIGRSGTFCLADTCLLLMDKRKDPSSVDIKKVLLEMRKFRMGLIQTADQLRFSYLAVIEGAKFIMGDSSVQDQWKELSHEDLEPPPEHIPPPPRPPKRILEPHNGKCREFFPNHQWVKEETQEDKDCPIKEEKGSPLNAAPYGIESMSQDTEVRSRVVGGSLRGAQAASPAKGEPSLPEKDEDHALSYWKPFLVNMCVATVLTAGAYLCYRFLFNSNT

[3] = literature study; cited from earlier work

| Structure (SMILES) | % Change from Control (PTPase activity) [1] | IC50 [2] | carcinogenicity [3] |
| --- | --- | --- | --- |
| Oc1ccc(-c2cccc3sc4ccccc4c23)cc1 [Example 3, 4-(Dibenzothiophen-1-yl)-phenol] | -51.63% | – | – |
| Oc1ccc(-c2c(Br)ccc3sc4ccccc4c23)cc1 [Example 6, 4-(2-Bromo-dibenzothiophen-1-yl)-phenol] | -31.13% | – | – |
| Oc1c(Br)cc(-c2cccc3sc4ccccc4c23)cc1Br [Example 7, 2,6-Dibromo-4-(dibenzothiophen-1-yl)-phenol] | -18.53% | 1890 nM | – |
| COC(=O)COc1ccc(-c2c(Br)ccc3sc4ccccc4c23)cc1 [Example 10, [4-(2-Bromo-dibenzothiophen-1-yl)-phenoxy]-acetic Acid Methyl Ester] | -21.11% | – | – |
| O=C(O)COc1ccc(-c2cccc3sc4ccccc4c23)cc1 [Example 12, [4-(Dibenzothiophen-1-yl)-phenoxy]-acetic Acid] | -19.49% | – | – |
| CN(C)c1ccc(-c2cccc3sc4ccccc4c23)cc1 [compound A (R=NMe2, R'=H)] | – | – | inactive |

More lines, main results first:

| % Change from Control (PTPase activity) [1] | IC50 [2] | Structure (SMILES) | carcinogenicity [3] |
| --- | --- | --- | --- |
| -42.62% | – | O=C(O)COc1ccc(-c2c(Br)ccc3sc4ccccc4c23)cc1 [Example 13, [4-(2-Bromo-dibenzothiophen-1-yl)-phenoxy]-acetic Acid] | – |
| -74.88% | – | O=C(O)COc1c(Br)cc(-c2cccc3sc4ccccc4c23)cc1Br [Example 14, [2,6-Dibromo-4-(dibenzothiophen-1-yl)-phenoxy]-acetic acid] | – |
| -81.43% | 1330 nM | O=C(O)[C@@H](Cc1ccccc1)Oc1c(Br)cc(-c2cccc3sc4ccccc4c23)cc1Br [Example 19, (R)-2-[2,6-Dibromo-4-(dibenzothiophen-1-yl)-phenoxy]-3-phenyl-propionic acid] | – |
| -75.69% | 604 nM | O=C(O)[C@@H](Cc1ccccc1)Oc1c(Br)cc(-c2c(Br)ccc3sc4ccccc4c23)cc1Br [Example 20] | – |
| -87.44% | 1390 nM | O=C(O)[C@@H](CCN1C(=O)c2ccccc2C1=O)Oc1c(Br)cc(-c2c(Br)ccc3sc4ccccc4c23)cc1Br [Example 21, (R)-2-[2,6-Dibromo-4-(2-bromo-dibenzothiophen-1-yl)-phenoxy]-4-(1,3-dioxo-1,3-dihydro-isoindol-2-yl)-butyric acid] | – |
